Source: patent US20240360113A1, “AMINOARYL-INTEGRIN AGONISTS COMPOUNDS” (Texas Heart Institute, priority 2021, published 2024)

Key:
[1] = biological target: T1, α4β1/VCAM-1 (Homo sapiens, UniProt P05556+P13612); experiment: Static cell adhesion assay, Jurkat cells on VCAM-1 (VLA-4 agonist activity); assay type: cell-based; details: EC50 relative to THI0349 (average 11 uM) run on the same plate; Jurkat cells, 50% FBS
T1 construct: The Jurkat (VCAM-1 assays) and HSB (ICAM-1 assays) cell lines were obtained from American Type Culture Collection; endogenous in cells; host or cells: Jurkat (ATCC)
T1 sequence (P13612 34-1032): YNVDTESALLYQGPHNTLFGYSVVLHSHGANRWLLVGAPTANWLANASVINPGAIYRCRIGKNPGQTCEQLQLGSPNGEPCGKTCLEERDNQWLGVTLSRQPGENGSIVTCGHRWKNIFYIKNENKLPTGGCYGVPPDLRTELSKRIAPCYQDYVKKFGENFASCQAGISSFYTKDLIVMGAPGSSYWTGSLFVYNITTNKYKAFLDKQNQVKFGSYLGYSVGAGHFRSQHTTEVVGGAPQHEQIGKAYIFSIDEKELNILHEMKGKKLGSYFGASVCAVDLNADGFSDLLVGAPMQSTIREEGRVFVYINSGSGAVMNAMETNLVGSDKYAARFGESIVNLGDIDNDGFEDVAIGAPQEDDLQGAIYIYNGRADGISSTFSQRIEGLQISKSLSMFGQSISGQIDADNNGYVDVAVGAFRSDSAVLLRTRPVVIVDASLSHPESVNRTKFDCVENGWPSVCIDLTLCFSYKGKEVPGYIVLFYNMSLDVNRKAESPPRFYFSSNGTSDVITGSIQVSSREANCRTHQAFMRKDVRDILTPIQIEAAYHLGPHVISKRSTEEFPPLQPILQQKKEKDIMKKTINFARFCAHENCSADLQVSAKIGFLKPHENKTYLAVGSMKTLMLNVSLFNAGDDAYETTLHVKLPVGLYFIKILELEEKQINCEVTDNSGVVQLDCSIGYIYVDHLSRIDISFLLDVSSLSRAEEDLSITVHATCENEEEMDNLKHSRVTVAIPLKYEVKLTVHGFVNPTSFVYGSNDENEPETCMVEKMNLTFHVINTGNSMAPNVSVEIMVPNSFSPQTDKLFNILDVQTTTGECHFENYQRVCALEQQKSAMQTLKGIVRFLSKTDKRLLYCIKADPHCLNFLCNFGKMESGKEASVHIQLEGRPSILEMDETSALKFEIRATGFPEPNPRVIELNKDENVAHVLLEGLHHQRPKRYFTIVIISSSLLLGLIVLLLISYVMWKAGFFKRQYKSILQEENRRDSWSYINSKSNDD
T1 sequence (P05556 21-798): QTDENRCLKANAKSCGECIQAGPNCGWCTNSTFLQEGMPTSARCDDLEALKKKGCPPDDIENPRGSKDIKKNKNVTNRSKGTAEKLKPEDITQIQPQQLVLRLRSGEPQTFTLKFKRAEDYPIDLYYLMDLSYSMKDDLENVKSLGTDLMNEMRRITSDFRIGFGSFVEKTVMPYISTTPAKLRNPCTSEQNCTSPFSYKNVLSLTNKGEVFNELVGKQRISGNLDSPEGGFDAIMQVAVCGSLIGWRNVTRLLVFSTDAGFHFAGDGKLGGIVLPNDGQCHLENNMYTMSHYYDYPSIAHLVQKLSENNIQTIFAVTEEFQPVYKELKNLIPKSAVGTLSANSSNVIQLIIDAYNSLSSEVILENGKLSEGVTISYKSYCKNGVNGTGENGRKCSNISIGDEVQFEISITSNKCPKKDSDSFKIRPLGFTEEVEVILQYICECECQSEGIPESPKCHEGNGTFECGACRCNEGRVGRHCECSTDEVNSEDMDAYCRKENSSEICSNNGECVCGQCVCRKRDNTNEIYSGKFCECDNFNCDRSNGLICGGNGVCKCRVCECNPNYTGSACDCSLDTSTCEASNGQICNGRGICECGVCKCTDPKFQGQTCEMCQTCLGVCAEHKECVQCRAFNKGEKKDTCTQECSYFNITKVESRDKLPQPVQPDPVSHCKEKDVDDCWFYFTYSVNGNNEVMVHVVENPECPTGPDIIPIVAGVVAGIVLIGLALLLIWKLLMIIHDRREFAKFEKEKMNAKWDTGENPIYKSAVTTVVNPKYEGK
Procedure: (§1) For in vitro cell adhesion assays, compounds were dissolved in DMSO to make a series of stock solutions such that a 1:100 dilution in assay buffer would yield the desired final working concentrations in 1% DMSO (vehicle). Human VCAM-1 and ICAM-1 were purchased from R&D Systems (Minneapolis, MN). The Jurkat (VCAM-1 assays) and HSB (ICAM-1 assays) cell lines were obtained from American Type Culture Collection (Manassas, VA) and were maintained in recommended culture media.
(§2) Assays were performed as previously described in Vanderslice et al., (2010), Biochem Biophys Res Commun 400, 619-624; and Vanderslice et al., (2013) J Biol Chem 288, 19414-19428. VCAM-1 or ICAM-1 ligand in 50 μL of 50 mM Tris-HCl (pH 7.4), 150 mM NaCl, (TBS) was added to wells of a 96-well plate and allowed to coat overnight at 4° C. To maximize the window to evaluate agonist activity, a sub-optimal coating concentration of ligand was used, typically 0.5 and 5 μg/mL in 50 μL TBS for VCAM-1 and ICAM-1 respectively. This ligand concentration corresponded approximately to that which would yield <5% adhesion as determined by dose-response curves. Briefly, 2×10^6 cells were labeled for 30 minutes with calcein-AM (Molecular Probes), washed, resuspended in binding buffer, and added to triplicate wells of ligand-coated plates (2×10^5 cells/well) that had been blocked with 2% BSA. After a 30-minute incubation at 37° C., the plates were washed 3 times with binding buffer, the adherent cells were lysed, and fluorescence was measured on a Tecan Safire^2 plate reader. The binding buffer was PBS with 1 mM MgCl2, 50% FBS for α4β1/VCAM-1 assays and PBS with 2 mM MgCl2, 5 mM EGTA, 50% FBS for αLβ2/ICAM-1 assays. EC50 is defined as the concentration of compound required to achieve 50% of the maximal response.

[2] = biological target: T2, αLβ2/ICAM-1 (Homo sapiens, UniProt P05107+P20701); experiment: Static cell adhesion assay, HSB cells on ICAM-1 (LFA-1; LAD); assay type: cell-based; details: RFU of compound / RFU of THI0349, both at the same concentration
T2 construct: The Jurkat (VCAM-1 assays) and HSB (ICAM-1 assays) cell lines were obtained from American Type Culture Collection; endogenous in cells; host or cells: HSB (ATCC)
T2 sequence (P20701 26-1170): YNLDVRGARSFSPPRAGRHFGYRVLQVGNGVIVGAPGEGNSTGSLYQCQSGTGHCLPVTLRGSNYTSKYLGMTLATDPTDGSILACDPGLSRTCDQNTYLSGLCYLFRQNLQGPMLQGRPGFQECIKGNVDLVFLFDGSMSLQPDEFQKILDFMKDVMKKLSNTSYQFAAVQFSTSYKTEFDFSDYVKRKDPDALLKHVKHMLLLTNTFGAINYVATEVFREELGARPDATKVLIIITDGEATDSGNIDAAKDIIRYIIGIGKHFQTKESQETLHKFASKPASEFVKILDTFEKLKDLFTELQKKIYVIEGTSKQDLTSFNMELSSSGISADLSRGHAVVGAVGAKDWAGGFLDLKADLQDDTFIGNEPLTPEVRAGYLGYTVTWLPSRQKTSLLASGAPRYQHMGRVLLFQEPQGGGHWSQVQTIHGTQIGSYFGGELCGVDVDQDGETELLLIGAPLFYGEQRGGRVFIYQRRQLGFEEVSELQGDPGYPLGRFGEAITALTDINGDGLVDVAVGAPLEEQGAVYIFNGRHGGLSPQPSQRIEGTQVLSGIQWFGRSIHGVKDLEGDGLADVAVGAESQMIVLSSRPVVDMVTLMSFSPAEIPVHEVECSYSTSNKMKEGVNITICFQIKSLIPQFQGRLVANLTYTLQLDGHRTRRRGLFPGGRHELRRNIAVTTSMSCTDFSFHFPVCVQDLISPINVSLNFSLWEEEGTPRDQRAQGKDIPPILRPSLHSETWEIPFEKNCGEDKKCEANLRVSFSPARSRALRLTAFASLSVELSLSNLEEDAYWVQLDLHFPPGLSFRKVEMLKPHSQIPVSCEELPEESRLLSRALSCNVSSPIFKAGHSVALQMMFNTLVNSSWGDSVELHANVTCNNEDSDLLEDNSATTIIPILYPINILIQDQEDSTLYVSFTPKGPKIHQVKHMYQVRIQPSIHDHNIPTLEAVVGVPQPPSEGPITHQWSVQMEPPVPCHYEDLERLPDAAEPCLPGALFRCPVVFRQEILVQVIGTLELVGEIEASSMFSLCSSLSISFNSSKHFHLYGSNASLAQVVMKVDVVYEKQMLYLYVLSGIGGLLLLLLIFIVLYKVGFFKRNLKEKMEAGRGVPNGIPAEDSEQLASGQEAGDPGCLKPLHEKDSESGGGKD
T2 sequence (P05107 23-769): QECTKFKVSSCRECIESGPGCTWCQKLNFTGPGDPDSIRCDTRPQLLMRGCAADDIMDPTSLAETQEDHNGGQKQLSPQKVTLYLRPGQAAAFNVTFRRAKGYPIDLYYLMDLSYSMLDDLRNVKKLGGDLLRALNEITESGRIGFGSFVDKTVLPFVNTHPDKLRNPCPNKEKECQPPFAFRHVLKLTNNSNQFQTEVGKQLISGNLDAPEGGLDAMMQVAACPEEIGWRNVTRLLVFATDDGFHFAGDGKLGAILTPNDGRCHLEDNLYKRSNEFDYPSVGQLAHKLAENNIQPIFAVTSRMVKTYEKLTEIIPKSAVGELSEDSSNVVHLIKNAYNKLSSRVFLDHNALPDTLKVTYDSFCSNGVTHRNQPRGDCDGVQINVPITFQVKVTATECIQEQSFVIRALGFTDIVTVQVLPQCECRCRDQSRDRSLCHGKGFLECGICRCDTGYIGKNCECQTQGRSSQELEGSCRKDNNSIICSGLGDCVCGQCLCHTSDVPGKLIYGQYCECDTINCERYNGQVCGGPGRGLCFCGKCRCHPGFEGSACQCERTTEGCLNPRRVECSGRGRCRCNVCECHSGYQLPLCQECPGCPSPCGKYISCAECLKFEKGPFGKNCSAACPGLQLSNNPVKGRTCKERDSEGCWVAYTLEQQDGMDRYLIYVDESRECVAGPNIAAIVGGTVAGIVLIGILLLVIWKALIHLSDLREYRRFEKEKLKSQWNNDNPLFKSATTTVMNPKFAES
Procedure: as §1, §2
In relation to LAD (Leukocyte Adhesion Deficiency), LFA-1 ratios are determined by dividing the relative fluorescence units (RFU) of each compound at a concentration of 3 μM over that of the reference standard of THI0349, also at 3 μM, (RFU Compound/RFU of THI0349). Log Ps were calculated by either Chemdraw® version 12 (CambridgeSoft) or ACD/Chemsketch® (ACD/Labs).

| SMILES | LAD Raw Fluorescence Units against LFA-1; Dose 3 µM; Ratio of raw counts Compound/THI0349 [2] | Group against VCAM [1] |
| --- | --- | --- |
| OCc1coc(N(Cc2cccs2)Cc2cccs2)n1 [Compound 25, (2-(bis(thiophen-2-ylmethyl)amino)oxazol-4-yl)methanol] | 0.74 | II (Group II is more than twice that of THI0349 but less than five times THI0349's EC50) |
| COc1ccc(CN(Cc2ccc(OC)cc2)c2nc(CO)co2)cc1 [Compound 26, (2-(bis(4-methoxybenzyl)amino)oxazol-4-yl)methanol] | 0.79 | I (Group I maintains at least the same potency or better up to more than twice that of the EC50 of THI0349 ran on the same plate) |
| COc1ccc(CN(Cc2ccc(OC)cc2)c2nc(COCCOCCO)cs2)cc1 [Compound 34, 2-(2-((2-(bis(4-methoxybenzyl)amino)thiazol-4-yl)methoxy)ethoxy)ethanol] | 0.34 | III (Group III more than five times the EC50 of THI0349) |
| COc1cccc(COCc2csc(N(Cc3cccc(OC)c3)Cc3cccc(OC)c3)n2)c1 [Compound 38, N,N-bis(3-methoxybenzyl)-4-((3-methoxybenzyloxy)methyl)thiazol-2-amine] | 0.16 | III (Group III more than five times the EC50 of THI0349) |
| COc1ccc(CCCOCc2csc(N(Cc3cccc(OC)c3)Cc3cccc(OC)c3)n2)cc1 [Compound 39, N,N-bis(3-methoxybenzyl)-4-((3-(4-methoxyphenyl)propoxy)methyl)thiazol-2-amine] | 0.23 | III (Group III more than five times the EC50 of THI0349) |
| COc1cccc(CN(Cc2cccc(OC)c2)c2nc(COCCOCCOc3cccc(OC)c3)cs2)c1 [Compound 42, N,N-bis(3-methoxybenzyl)-4-((2-(2-(3-methoxyphenoxy)ethoxy)ethoxy)methyl)thiazol-2-amine] | 1.6 | I (Group I maintains at least the same potency or better up to more than twice that of the EC50 of THI0349 ran on the same plate) |
| COc1cccc(CN(Cc2cccc(OC)c2)c2nc(COCCOCCOc3ccc(Cl)cc3)cs2)c1 [Compound 44, 4-((2-(2-(4-chlorophenoxy)ethoxy)ethoxy)methyl)-N,N-bis(3-methoxybenzyl)thiazol-2-amine] | 0.77 | I (Group I maintains at least the same potency or better up to more than twice that of the EC50 of THI0349 ran on the same plate) |
| COc1cccc(CN(Cc2cccc(OC)c2)c2nc(COCCOCCOc3cccc(C#N)c3)cs2)c1 [Compound 45, 3-(2-(2-((2-(bis(3-methoxybenzyl)amino)thiazol-4-yl)methoxy)ethoxy)ethoxy)benzonitrile] | 0.76 | I (Group I maintains at least the same potency or better up to more than twice that of the EC50 of THI0349 ran on the same plate) |
| COc1cccc(CN(Cc2cccc(OC)c2)c2nc(COCCOc3cccc(OC)c3)cs2)c1 [Compound 47, N,N-bis(3-methoxybenzyl)-4-((2-(3-methoxyphenoxy)ethoxy)methyl)thiazol-2-amine] | 0.7 | I (Group I maintains at least the same potency or better up to more than twice that of the EC50 of THI0349 ran on the same plate) |

Further lines, with some results ahead:

| LAD Raw Fluorescence Units against LFA-1; Dose 3 µM; Ratio of raw counts Compound/THI0349 [2] | SMILES | Group against VCAM [1] |
| --- | --- | --- |
| 0.85 | COc1ccc(CCCOCc2coc(N(Cc3cccs3)Cc3cccs3)n2)cc1 [Compound 24, 4-((3-(4-methoxyphenyl)propoxy)methyl)-N,N-bis(thiophen-2-ylmethyl)oxazol-2-amine] | II (Group II is more than twice that of THI0349 but less than five times THI0349's EC50) |
| 0.28 | COc1cccc(CN(Cc2cccc(OC)c2)c2cnc(CCOc3ccccc3)o2)c1 [Compound 27, N,N-bis(3-methoxybenzyl)-2-(2-phenoxyethyl)oxazol-5-amine] | III (Group III more than five times the EC50 of THI0349) |
| 0.88 | COc1cccc(CN(Cc2cccc(OC)c2)c2nc(C)cs2)c1 [Compound 29, N,N-bis(3-methoxybenzyl)-4-methylthiazol-2-amine] | III (Group III more than five times the EC50 of THI0349) |
| 1.2 | COCCOc1cccc(CN(Cc2cccc(OCCOC)c2)c2nc(C)cs2)c1 [Compound 30, N,N-bis(3-(2-methoxyethoxy)benzyl)-4-methylthiazol-2-amine] | III (Group III more than five times the EC50 of THI0349) |
| 0.31 | COc1cccc(CN(Cc2cccc(OC)c2)c2nc(COCCO)cs2)c1 [Compound 33, 2-((2-(bis(3-methoxybenzyl)amino)thiazol-4-yl)methoxy)ethanol] | III (Group III more than five times the EC50 of THI0349) |
| 0.98 | COc1ccc(CN(Cc2ccc(OC)cc2)c2nc(COCCOCCOCc3csc(N(Cc4ccc(OC)cc4)Cc4ccc(OC)cc4)n3)cs2)cc1 [Compound 35, 4,4′-(2,2′-oxybis(ethane-2,1-diyl)bis(oxy))bis(methylene)bis(N,N-bis(4-methoxybenzyl)thiazol-2-amine)] | II (Group II is more than twice that of THI0349 but less than five times THI0349's EC50) |
| 0.4 | COc1ccc(CCOCc2csc(N(Cc3cccc(OC)c3)Cc3cccc(OC)c3)n2)cc1 [Compound 40, N,N-bis(3-methoxybenzyl)-4-((4-methoxyphenethoxy)methyl)thiazol-2-amine] | III (Group III more than five times the EC50 of THI0349) |
| 1.3 | COc1cccc(CN(Cc2cccc(OC)c2)c2nc(COCCOCCOc3cccc(N(C)C)c3)cs2)c1 [Compound 41, 4-((2-(2-(3-(dimethylamino)phenoxy)ethoxy)ethoxy)methyl)-N,N-bis(3-methoxybenzyl)thiazol-2-amine] | I (Group I maintains at least the same potency or better up to more than twice that of the EC50 of THI0349 ran on the same plate) |
| 0.80 | COc1cccc(CN(Cc2cccc(OC)c2)c2nc(COCCOCCOc3ccccc3)cs2)c1 [Compound 43, N,N-bis(3-methoxybenzyl)-4-((2-(2-phenoxyethoxy)ethoxy)methyl)thiazol-2-amine] | I (Group I maintains at least the same potency or better up to more than twice that of the EC50 of THI0349 ran on the same plate) |
| 1.5 | COc1cccc(CN(Cc2cccc(OC)c2)c2nc(COCCOCCOc3ccc(N(C)C)cc3)cs2)c1 [Compound 46, 4-((2-(2-(4-(dimethylamino)phenoxy)ethoxy)ethoxy)methyl)-N,N-bis(3-methoxybenzyl)thiazol-2-amine] | I (Group I maintains at least the same potency or better up to more than twice that of the EC50 of THI0349 ran on the same plate) |
